According to paper PMC5218480 (PLoS ONE, 2017):

Tested on: MV-4-11 cells
Assay: Gene expression microarray analysis (Affymetrix PrimeView) and GSEA
Assay type: cell-based, human
Parameters: RFU PODN (11730768_x_at) / Fold change /veh PODN (11730768_x_at) / RFU LINC00158 (11744669_a_at) / Fold change /veh LINC00158 (11744669_a_at) / RFU DUSP10 (11751237_a_at) / Fold change /veh DUSP10 (11751237_a_at) / RFU ID3 (11757404_x_at) / Fold change /veh ID3 (11757404_x_at) / RFU PLEKHG5 (11737974_s_at) / Fold change /veh PLEKHG5 (11737974_s_at) / RFU LRRC4B (11730491_at) / Fold change /veh LRRC4B (11730491_at) / RFU GIMAP4 (11747438_a_at) / Fold change /veh GIMAP4 (11747438_a_at) / RFU KRT8 (11758183_x_at) / Fold change /veh KRT8 (11758183_x_at) / RFU CNN1 (11734310_a_at) / Fold change /veh CNN1 (11734310_a_at) / RFU VPS37D (11726825_at) / Fold change /veh VPS37D (11726825_at) / RFU C10orf10 (11716522_x_at) / Fold change /veh C10orf10 (11716522_x_at) / RFU KIR2DL2 /// KIR2DL4 /// KIR2DL5A /// KIR2DL5B /// KIR2DS1 /// KIR2DS2 /// KIR2DS3 /// KIR2DS4 /// KIR3DL3 /// KIR3DL3 /// KIR3DS1 (11738374_at) / Fold change /veh KIR2DL2 /// KIR2DL4 /// KIR2DL5A /// KIR2DL5B /// KIR2DS1 /// KIR2DS2 /// KIR2DS3 /// KIR2DS4 /// KIR3DL3 /// KIR3DL3 /// KIR3DS1 (11738374_at) / RFU C1QL1 (11718748_at) / Fold change /veh C1QL1 (11718748_at) / RFU TMPRSS4 (11747572_a_at) / Fold change /veh TMPRSS4 (11747572_a_at) / RFU HAMP (11756126_x_at) / Fold change /veh HAMP (11756126_x_at) / RFU RNFT2 (11725882_a_at) / Fold change /veh RNFT2 (11725882_a_at) / RFU NR4A2 (11747474_a_at) / Fold change /veh NR4A2 (11747474_a_at) / RFU ABCC12 (11746883_a_at) / Fold change /veh ABCC12 (11746883_a_at) / RFU TMEM136 (11760407_x_at) / Fold change /veh TMEM136 (11760407_x_at) / RFU CLDN22 /// WWC2 (11732394_at) / Fold change /veh CLDN22 /// WWC2 (11732394_at) / RFU HLA-DPB1 (11760878_x_at) / Fold change /veh HLA-DPB1 (11760878_x_at) / RFU SPINT1 (11716480_a_at) / Fold change /veh SPINT1 (11716480_a_at) / RFU GAP43 (11754022_s_at) / Fold change /veh GAP43 (11754022_s_at) / RFU A4GNT (11735810_at) / Fold change /veh A4GNT (11735810_at) / RFU PRB3 (11715151_x_at) / Fold change /veh PRB3 (11715151_x_at) / RFU TUBB4B (11761932_at) / Fold change /veh TUBB4B (11761932_at) / RFU CAPN14 (11732068_a_at) / Fold change /veh CAPN14 (11732068_a_at) / RFU TMCC2 (11721928_a_at) / Fold change /veh TMCC2 (11721928_a_at) / RFU IRGQ (11745062_a_at) / Fold change /veh IRGQ (11745062_a_at) / RFU FAM174B (11720279_a_at) / Fold change /veh FAM174B (11720279_a_at) / RFU TMPRSS4 (11748680_a_at) / Fold change /veh TMPRSS4 (11748680_a_at) / RFU FAM212B (11763350_a_at) / Fold change /veh FAM212B (11763350_a_at) / RFU PLEKHG5 (11743358_a_at) / Fold change /veh PLEKHG5 (11743358_a_at) / RFU ZSCAN30 (11745921_a_at) / Fold change /veh ZSCAN30 (11745921_a_at) / RFU CMKLR1 (11741424_a_at) / Fold change /veh CMKLR1 (11741424_a_at) / RFU LOC101060620 /// MAPK8IP1 (11723275_at) / Fold change /veh LOC101060620 /// MAPK8IP1 (11723275_at) / RFU SPTSSB (11747773_x_at) / Fold change /veh SPTSSB (11747773_x_at) / RFU PRSS12 (11739890_at) / Fold change /veh PRSS12 (11739890_at) / RFU BIN1 (11741810_x_at) / Fold change /veh BIN1 (11741810_x_at) / RFU WNT11 (11732464_a_at) / Fold change /veh WNT11 (11732464_a_at) / RFU C10orf10 (11716521_a_at) / Fold change /veh C10orf10 (11716521_a_at) / RFU C5orf56 (11738089_at) / Fold change /veh C5orf56 (11738089_at) / RFU CYB561 (11721691_x_at) / Fold change /veh CYB561 (11721691_x_at) / RFU ANKRD19P (11752326_a_at) / Fold change /veh ANKRD19P (11752326_a_at) / RFU OR2T12 /// OR2T33 /// OR2T8 (11738714_s_at) / Fold change /veh OR2T12 /// OR2T33 /// OR2T8 (11738714_s_at) / RFU VCAN (11748164_a_at) / Fold change /veh VCAN (11748164_a_at) / RFU JSRP1 (11732532_at) / Fold change /veh JSRP1 (11732532_at) / RFU KRTAP10-11 (11738290_x_at) / Fold change /veh KRTAP10-11 (11738290_x_at) / RFU MYO3A (11730013_a_at) / Fold change /veh MYO3A (11730013_a_at) / RFU EBF3 (11725865_a_at) / Fold change /veh EBF3 (11725865_a_at) / RFU CAMK2N1 (11719241_x_at) / Fold change /veh CAMK2N1 (11719241_x_at) / RFU C5orf56 (11738088_a_at) / Fold change /veh C5orf56 (11738088_a_at) / RFU OLFML3 (11715873_a_at) / Fold change /veh OLFML3 (11715873_a_at) / RFU LOC100653217 /// NTM (11731650_a_at) / Fold change /veh LOC100653217 /// NTM (11731650_a_at) / RFU MAPK11 (11762145_a_at) / Fold change /veh MAPK11 (11762145_a_at) / RFU FIZ1 (11724087_x_at) / Fold change /veh FIZ1 (11724087_x_at) / RFU OASL (11726364_x_at) / Fold change /veh OASL (11726364_x_at) / RFU SOX15 (11748057_x_at) / Fold change /veh SOX15 (11748057_x_at) / RFU CD79A (11719716_a_at) / Fold change /veh CD79A (11719716_a_at) / RFU HIST1H1D (11736915_at) / Fold change /veh HIST1H1D (11736915_at) / RFU CASKIN2 (11723855_a_at) / Fold change /veh CASKIN2 (11723855_a_at) / RFU LOC730098 (11760151_x_at) / Fold change /veh LOC730098 (11760151_x_at) / RFU OR4N2 (11742367_at) / Fold change /veh OR4N2 (11742367_at) / RFU PRRT2 (11749266_a_at) / Fold change /veh PRRT2 (11749266_a_at) / RFU SNX32 (11753110_a_at) / Fold change /veh SNX32 (11753110_a_at) / RFU CDHR5 (11726645_a_at) / Fold change /veh CDHR5 (11726645_a_at) / RFU RCAN1 (11760418_a_at) / Fold change /veh RCAN1 (11760418_a_at) / RFU FAM167A (11723789_a_at) / Fold change /veh FAM167A (11723789_a_at) / RFU FAM26E (11764081_at) / Fold change /veh FAM26E (11764081_at) / RFU ISYNA1 (11749810_s_at) / Fold change /veh ISYNA1 (11749810_s_at) / RFU ACY1 (11761880_at) / Fold change /veh ACY1 (11761880_at) / RFU 11764098_at / Fold change /veh 11764098_at / RFU SAMD14 (11745864_x_at) / Fold change /veh SAMD14 (11745864_x_at) / RFU NPB (11741838_a_at) / Fold change /veh NPB (11741838_a_at) / RFU TMPRSS6 (11731388_a_at) / Fold change /veh TMPRSS6 (11731388_a_at) / RFU KRTAP10-2 (11738614_at) / Fold change /veh KRTAP10-2 (11738614_at) / RFU ARHGAP8 /// PRR5-ARHGAP8 (11727945_x_at) / Fold change /veh ARHGAP8 /// PRR5-ARHGAP8 (11727945_x_at) / RFU KRTAP5-7 /// NADSYN1 (11734609_at) / Fold change /veh KRTAP5-7 /// NADSYN1 (11734609_at) / RFU RASL12 (11751679_a_at) / Fold change /veh RASL12 (11751679_a_at) / RFU CDKN2B (11736163_a_at) / Fold change /veh CDKN2B (11736163_a_at) / RFU PRF1 (11729649_at) / Fold change /veh PRF1 (11729649_at) / RFU, ZNF638 /// ZNF638-IT1 / Fold change vs veh, ZNF638 /// ZNF638-IT1 / RFU, PANK3 / Fold change vs veh, PANK3 / RFU, SH3YL1 / Fold change vs veh, SH3YL1 / RFU, ZEB2 / Fold change vs veh, ZEB2 / RFU, NRIP1 / Fold change vs veh, NRIP1 / RFU, PTTG1IP / Fold change vs veh, PTTG1IP / RFU, CAPN2 / Fold change vs veh, CAPN2 / RFU, MED14 / Fold change vs veh, MED14 / RFU, SNORA58 / Fold change vs veh, SNORA58 / RFU, C1orf63 / Fold change vs veh, C1orf63 / RFU, LRRFIP1 / Fold change vs veh, LRRFIP1 / RFU, NDUFAF7 / Fold change vs veh, NDUFAF7 / RFU, SLC12A2 / Fold change vs veh, SLC12A2 / RFU, IBTK / Fold change vs veh, IBTK / RFU, ESF1 / Fold change vs veh, ESF1 / Fold change vs veh, TMEM50B / RFU, TAOK1 / Fold change vs veh, TAOK1 / RFU, ACBD3 / Fold change vs veh, ACBD3 / RFU, TMA16 / Fold change vs veh, TMA16 / RFU, RWDD3 / Fold change vs veh, RWDD3 / RFU, BCAT1 / Fold change vs veh, BCAT1 / RFU, EDEM3 / Fold change vs veh, EDEM3 / RFU, TMEM33 / Fold change vs veh, TMEM33 / RFU, WDR75 / Fold change vs veh, WDR75 / RFU, AHCTF1 / Fold change vs veh, AHCTF1 / RFU, TFRC / Fold change vs veh, TFRC / RFU, ZDHHC17 / Fold change vs veh, ZDHHC17 / RFU, NOM1 / Fold change vs veh, NOM1 / RFU, ARL8B / Fold change vs veh, ARL8B / RFU, ZBTB11 / Fold change vs veh, ZBTB11 / RFU, TAMM41 / Fold change vs veh, TAMM41 / RFU, KIAA1704 /// LOC100996395 / Fold change vs veh, KIAA1704 /// LOC100996395 / RFU, ING1 / Fold change vs veh, ING1 / RFU, TRMT61B / Fold change vs veh, TRMT61B / RFU, FUBP3 / Fold change vs veh, FUBP3 / RFU, TP53 / Fold change vs veh, TP53 / RFU, TNKS2 / Fold change vs veh, TNKS2 / RFU, ZFP14 / Fold change vs veh, ZFP14 / RFU, ACTR2 / Fold change vs veh, ACTR2 / RFU, PPP3R1 / Fold change vs veh, PPP3R1 / RFU, PIK3R1 / Fold change vs veh, PIK3R1 / RFU, HNRNPA1 / Fold change vs veh, HNRNPA1 / RFU, RNF170 / Fold change vs veh, RNF170 / RFU, ZNF28 / Fold change vs veh, ZNF28 / RFU, RNGTT / Fold change vs veh, RNGTT / RFU, OGT / Fold change vs veh, OGT / RFU, BRD1 / Fold change vs veh, BRD1 / RFU, MARS / Fold change vs veh, MARS / RFU, ZNF655 / Fold change vs veh, ZNF655 / RFU, FAHD1 / Fold change vs veh, FAHD1 / RFU, BDP1 / Fold change vs veh, BDP1 / RFU, LRRCC1 / Fold change vs veh, LRRCC1 / RFU, ARID1A / Fold change vs veh, ARID1A / RFU, ZNF146 / Fold change vs veh, ZNF146 / RFU, ZNF330 / Fold change vs veh, ZNF330 / RFU, GPN3 / Fold change vs veh, GPN3 / RFU, C9orf123 / Fold change vs veh, C9orf123 / RFU, N4BP2L2 / Fold change vs veh, N4BP2L2 / RFU, ARFIP1 / Fold change vs veh, ARFIP1 / RFU, FAM179B / Fold change vs veh, FAM179B / RFU, BCL10 / Fold change vs veh, BCL10 / RFU, UHRF1BP1L / Fold change vs veh, UHRF1BP1L / RFU, BET1 / Fold change vs veh, BET1 / RFU, CNOT2 / Fold change vs veh, CNOT2 / RFU, ZNF268 / Fold change vs veh, ZNF268 / Fold change vs veh, ZNF507 / RFU, DGCR2 / Fold change vs veh, DGCR2 / RFU, WDSUB1 / Fold change vs veh, WDSUB1 / Fold change vs veh, HSP90B1 /// MIR3652 / RFU, ADSS / Fold change vs veh, ADSS / RFU, GK / Fold change vs veh, GK / RFU, ZNF148 / Fold change vs veh, ZNF148 / RFU, TAF9 / Fold change vs veh, TAF9 / RFU, SLC1A5 / Fold change vs veh, SLC1A5 / RFU, SLMO2 / Fold change vs veh, SLMO2 / RFU, ABCC4 / Fold change vs veh, ABCC4 / RFU, LOC101060439 /// RAP1B / Fold change vs veh, LOC101060439 /// RAP1B / RFU, RFX7 / Fold change vs veh, RFX7 / RFU, GTPBP10 / Fold change vs veh, GTPBP10 / RFU, CNEP1R1 / Fold change vs veh, CNEP1R1 / RFU, BIVM-ERCC5 /// ERCC5 / Fold change vs veh, BIVM-ERCC5 /// ERCC5 / RFU, ILF3 / Fold change vs veh, ILF3 / RFU 11762660_at / Fold change /veh 11762660_at / RFU VCAN (11757783_s_at) / Fold change /veh VCAN (11757783_s_at) / RFU DDX43 (11728927_at) / Fold change /veh DDX43 (11728927_at) / RFU KRT8 (11758188_x_at) / Fold change /veh KRT8 (11758188_x_at) / RFU NKD1 (11759106_at) / Fold change /veh NKD1 (11759106_at) / RFU SRD5A1 (11742802_a_at) / Fold change /veh SRD5A1 (11742802_a_at) / RFU TPSAB1 /// TPSB2 (11721975_s_at) / Fold change /veh TPSAB1 /// TPSB2 (11721975_s_at) / RFU GSTM3 (11746129_a_at) / Fold change /veh GSTM3 (11746129_a_at) / RFU IL23R (11737362_x_at) / Fold change /veh IL23R (11737362_x_at) / RFU TMEM51 (11727254_a_at) / Fold change /veh TMEM51 (11727254_a_at) / RFU PIWIL2 (11732686_x_at) / Fold change /veh PIWIL2 (11732686_x_at) / RFU ORM1 (11744905_x_at) / Fold change /veh ORM1 (11744905_x_at) / RFU CCDC152 (11743942_at) / Fold change /veh CCDC152 (11743942_at) / RFU ECM1 (11717891_a_at) / Fold change /veh ECM1 (11717891_a_at) / RFU IL23R (11748794_a_at) / Fold change /veh IL23R (11748794_a_at) / RFU TNFAIP8L3 (11732012_x_at) / Fold change /veh TNFAIP8L3 (11732012_x_at) / RFU MBOAT4 (11741988_at) / Fold change /veh MBOAT4 (11741988_at) / RFU 11764193_at / Fold change /veh 11764193_at / RFU TMEM53 (11763286_at) / Fold change /veh TMEM53 (11763286_at) / RFU MAGEB2 (11727129_at) / Fold change /veh MAGEB2 (11727129_at) / RFU TMEM200A (11744735_a_at) / Fold change /veh TMEM200A (11744735_a_at) / RFU CCDC152 (11751479_a_at) / Fold change /veh CCDC152 (11751479_a_at) / RFU FAM211A (11726209_a_at) / Fold change /veh FAM211A (11726209_a_at) / RFU RGS16 (11746705_a_at) / Fold change /veh RGS16 (11746705_a_at) / RFU VCAN (11755009_s_at) / Fold change /veh VCAN (11755009_s_at) / RFU RHOB (11743442_s_at) / Fold change /veh RHOB (11743442_s_at) / RFU RGS16 (11720943_a_at) / Fold change /veh RGS16 (11720943_a_at) / RFU RGS16 (11720944_at) / Fold change /veh RGS16 (11720944_at) / RFU, VPS4B / Fold change vs veh, VPS4B / RFU, CREB1 / Fold change vs veh, CREB1 / RFU, DNAJC13 / Fold change vs veh, DNAJC13 / RFU, GNAQ / Fold change vs veh, GNAQ / RFU, CDK5R1 / Fold change vs veh, CDK5R1 / RFU, ZRANB3 / Fold change vs veh, ZRANB3 / RFU, CUL4A / Fold change vs veh, CUL4A / RFU, CCNY / Fold change vs veh, CCNY / RFU, UFL1 / Fold change vs veh, UFL1 / RFU, COG3 / Fold change vs veh, COG3 / RFU, DIAPH2 / Fold change vs veh, DIAPH2 / RFU, SKA2 / Fold change vs veh, SKA2 / RFU, AFF3 / Fold change vs veh, AFF3 / RFU, LMF1 / Fold change vs veh, LMF1 / RFU, IPO11 / Fold change vs veh, IPO11 / RFU, DFFB / Fold change vs veh, DFFB / RFU, FOXP1 / Fold change vs veh, FOXP1 / RFU, CARD8 / Fold change vs veh, CARD8 / RFU, STRN3 / Fold change vs veh, STRN3 / RFU, ADK / Fold change vs veh, ADK / RFU, RASSF2 / Fold change vs veh, RASSF2 / RFU, WIPF1 / Fold change vs veh, WIPF1 / RFU, LARP1B / Fold change vs veh, LARP1B / RFU, RASA1 / Fold change vs veh, RASA1 / RFU, RB1 / Fold change vs veh, RB1 / RFU, PPFIA1 / Fold change vs veh, PPFIA1 / RFU, MAT2A / Fold change vs veh, MAT2A / RFU, CCT5 / Fold change vs veh, CCT5 / RFU, WDR92 / Fold change vs veh, WDR92 / RFU, CUX1 / Fold change vs veh, CUX1 / RFU, TTC7A / Fold change vs veh, TTC7A / RFU, TMEM135 / Fold change vs veh, TMEM135 / RFU, DEPTOR / Fold change vs veh, DEPTOR / RFU, CPM / Fold change vs veh, CPM / RFU, DNAJB6 / Fold change vs veh, DNAJB6 / RFU, CACNA2D3 / Fold change vs veh, CACNA2D3 / RFU, DTX4 / Fold change vs veh, DTX4 / RFU, TFCP2 / Fold change vs veh, TFCP2 / RFU, GMCL1 /// GMCL1P1 / Fold change vs veh, GMCL1 /// GMCL1P1 / RFU, AEBP2 / Fold change vs veh, AEBP2 / RFU, SNHG1 /// SNORD22 /// SNORD25 /// SNORD26 /// SNORD27 /// SNORD28 /// SNORD29 /// SNORD31 / Fold change vs veh, SNHG1 /// SNORD22 /// SNORD25 /// SNORD26 /// SNORD27 /// SNORD28 /// SNORD29 /// SNORD31 / Fold change (Aza/veh), C12orf56 (ProbeSet 11735607_a_at) / Fold change (ACY-1035/veh), C12orf56 (ProbeSet 11735607_a_at) / Fold change (Aza/veh), FGFR1OP (ProbeSet 11751329_s_at) / Fold change (ACY-1035/veh), FGFR1OP (ProbeSet 11751329_s_at) / Fold change (Aza/veh), VPS36 (ProbeSet 11739960_a_at) / Fold change (ACY-1035/veh), VPS36 (ProbeSet 11739960_a_at) / RFU SYPL1 (11715823_x_at) / Fold change /veh SYPL1 (11715823_x_at) / RFU IGFBP7 (11715501_s_at) / Fold change /veh IGFBP7 (11715501_s_at) / RFU REEP3 (11722064_at) / Fold change /veh REEP3 (11722064_at) / RFU IGLL1 (11728026_x_at) / Fold change /veh IGLL1 (11728026_x_at): dose or concentration left out as unconfirmed
Details: ProbeSet 11728271_at; LIST B

Nc1ncn([C@@H]2O[C@H](CO)[C@@H](O)[C@H]2O)c(=O)n1 [azacitidine]
RFU, ZNF330: 711.81 RFU
